Counter-ions that a name gives are not always drawn. Like-named read-outs stand apart in the source and are kept apart here.
Biological target: T1, β-glucuronidase (Sigma) (EC 3.2.1.31) from E. coli (Escherichia coli, UniProt P05804)
T1 construct: purchased Sigma G-7396
Experiment: biochemical
Conditions: for remaining activity at 0.001 %: test concentration 0.001 %
Method: Investigation of the inhibitory action of the β-glucuronidase inhibitors (in vitro)
Since the skin-relevant β-glucuronidase was not available, a commercially available β-glucuronidase (Sigma) (EC 3.2.1.31) from E. coli served as the model enzyme for testing the inhibitory action of the inhibitors used according to the invention. The tests were carried out with the β-glucuronidase enzyme assay product no. G-7396 from Sigma in accordance with the instructions in the Sigma Quality Control Test Procedure datasheet.
For the evaluation, the phenolphthalein formed from the substrate phenolphthalein glucuronide by β-glucuronidase was determined spectrophotometrically (λ=540 nm).
The reaction solutions of 300 μl, which were temperature-controlled at a reaction temperature of 37° C., comprised 30 mM potassium phosphate buffer with 0.04% of albumin (pH 6.8), 0.5 mM phenolphthalein glucuronide (substrate) and a starting concentration of 40 U/ml (=12 U) of β-glucuronidase. The unit U of the enzyme activity was defined such that 1 U of β-glucuronidase hydrolyses 1.0 μmol of phenolphthalein glucuronide per minute at pH 6.8 and 37° C.
The reaction was started by addition of the enzyme and incubation was carried out for 30 min at 37° C. The reaction was then stopped with 3.5 times the volume of a 200 mM glycine solution of pH 10.4. In the photometric end point determination, the amount of phenolphthalein liberated was determined at the wavelength of λ=540 nm and at 37° C.
In batches with inhibitor, 0.2 ml of the appropriately concentrated reagents and 0.1 ml of the inhibitor, dissolved in water, were mixed. In each case a concentration series of the inhibitor was tested here. The absorption (A) here is a measure of the activity of the enzyme (ΔA). The activity of the enzyme in the absence of an inhibitor (ΔA1) was set at 100% as the reference. Under analogous conditions, the activities were determined in the presence of an inhibitor (ΔA2). The inhibitory action of the inhibitor was shown as the residual activity of the enzyme activity, calculated in accordance with the equation 100%−(ΔA2)/(ΔA1)%.

[1] = test concentration 0.08 %, 30 min, 37° C., pH 6.8
[2] = test concentration 0.50 %, 30 min, 37° C., pH 6.8
[3] = 0.5 h, 30 min, 37° C., pH 6.8, read-out: Residual activity
[4] = 0.5 h, test concentration 0.01 %, 30 min, 37° C., pH 6.8, read-out: Residual activity
[5] = 0.5 h, test concentration 0.10 %, 30 min, 37° C., pH 6.8, read-out: Residual activity
[6] = test concentration 0.01 %, 30 min, 37° C., pH 6.8
[7] = test concentration 0.10 %, 30 min, 37° C., pH 6.8
[8] = test concentration 1.00 %, 30 min, 37° C., pH 6.8
[9] = 0.5 h, test concentration 1.00 %, 30 min, 37° C., pH 6.8, read-out: Residual activity
[10] = 0.5 h, concentration in the test 0.01 % (head of grid column 4, first sub-table), 30 min, 37° C., pH 6.8, read-out: Residual activity
[11] = test concentration 2.00 %, 30 min, 37° C., pH 6.8
[12] = 0.5 h, pH 6.8, read-out: Residual activity

T1 sequence (P05804 whole entry): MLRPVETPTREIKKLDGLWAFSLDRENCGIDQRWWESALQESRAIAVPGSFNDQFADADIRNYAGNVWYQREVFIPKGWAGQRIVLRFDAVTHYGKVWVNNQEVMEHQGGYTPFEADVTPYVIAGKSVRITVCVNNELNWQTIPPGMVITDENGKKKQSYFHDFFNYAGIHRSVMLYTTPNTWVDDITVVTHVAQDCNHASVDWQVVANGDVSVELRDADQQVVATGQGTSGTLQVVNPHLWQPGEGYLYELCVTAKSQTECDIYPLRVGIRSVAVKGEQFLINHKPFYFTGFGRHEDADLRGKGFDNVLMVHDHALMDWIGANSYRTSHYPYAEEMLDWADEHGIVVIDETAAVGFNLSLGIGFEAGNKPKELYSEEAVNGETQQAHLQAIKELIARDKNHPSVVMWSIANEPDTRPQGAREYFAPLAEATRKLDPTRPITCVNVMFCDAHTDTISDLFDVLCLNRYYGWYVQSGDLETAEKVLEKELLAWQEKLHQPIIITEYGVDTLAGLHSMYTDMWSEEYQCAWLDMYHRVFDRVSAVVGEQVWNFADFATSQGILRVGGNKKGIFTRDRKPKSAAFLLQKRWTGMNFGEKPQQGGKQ

CC(O)C(=O)[O-].CC(O)C(=O)[O-].[Zn+2] (stereo not shown) [Zinc lactate, zinc lactate]
Residual activity (test concentration 0.005 %, 30 min, 37° C., pH 6.8): 77% | Residual activity (test concentration 0.05 %, 30 min, 37° C., pH 6.8): 55% | Residual activity [1]: 30% | Residual activity [2]: 3%

C[C@@H]1O[C@@H](O[C@H]2[C@H](Oc3cc(O)c4c(c3)O[C@H](c3ccc(O)cc3)CC4=O)O[C@H](CO)[C@@H](O)[C@@H]2O)[C@H](O)[C@H](O)[C@H]1O [Naringin, naringenin 7-rhamnoglucoside]
remaining activity at 0.001 % [3]: 103% | remaining activity at 0.01 % [4]: 94% | remaining activity at 0.1 % [5]: 47%

O=C1CC[C@@H](C(=O)[O-])N1.O=C1CC[C@@H](C(=O)[O-])N1.[Zn+2] [Zincidone]
Residual activity [6]: 79% | Residual activity [7]: 8% | Residual activity [8]: 3%

CC(C(=O)[O-])N(CC(=O)[O-])CC(=O)[O-].[Na+].[Na+].[Na+] (stereo not shown) [Trilon M, Methylglycinediacetic acid trisodium salt]
Residual activity [6]: 99% | Residual activity [7]: 91% | Residual activity [8]: 55%

O=C([O-])CC(O)(CC(=O)[O-])C(=O)[O-].[K+].[K+].[K+] [Tripotassium citrate, tripotassium citrate]
Residual activity [6]: 97% | Residual activity [7]: 86% | Residual activity [8]: 47%

O=C([O-])C(O)C(O)C(O)C(O)C(O)CO.O=C([O-])C(O)C(O)C(O)C(O)C(O)CO.[Mg+2] (stereo not shown) [Magnesium glucoheptonate, magnesium glucoheptonate]
Residual activity [6]: 55% | Residual activity [7]: 50%

zinc gluconate
Residual activity [6]: 88% | Residual activity [7]: 54% | Residual activity (test concentration 0.25 %, 30 min, 37° C., pH 6.8): 3% | Residual activity [8]: 1%

CC(C)c1cccc(=O)c(O)c1 [Hinokitiol (DMSO), 2-hydroxy-4-isopropyl-2,4,6-cycloheptatrien-1-one]
remaining activity at 0.001 % [3]: 112% | remaining activity at 0.01 % [4]: 156% | remaining activity at 0.1 % [5]: 30% | remaining activity at 1 % [9]: 2%

OCCc1ccccc1 [Phenylethyl alcohol, 2-phenylethyl alcohol]
remaining activity at 0.01 % [4]: 121% | remaining activity at 0.1 % [5]: 227% | remaining activity at 1 % [9]: 49%

CC(O)(P(=O)(O)O)P(=O)(O)O [Dequest 2016D, 1-Hydroxyethane-1,1-diphosphonic acid tetrasodium salt]
remaining activity at 8e-05 % (0.5 h, concentration in the test 0.00008 % (head of grid column 1, first sub-table), 30 min, 37° C., pH 6.8, read-out: Residual activity): 99% | remaining activity at 0.0008 % (0.5 h, concentration in the test 0.0008 % (head of grid column 2, first sub-table), 30 min, 37° C., pH 6.8, read-out: Residual activity): 95% | remaining activity at 0.01 % [10]: 52%

C=CCc1ccc(O[C@@H]2O[C@H](CO)[C@@H](O)[C@H](O)[C@H]2O)c(OC)c1 [Eugenyl Glucoside, 2-methoxy-4-(2-propenyl)phenyl β-D-glucoside]
Residual activity [7]: 53% | Residual activity [2]: 12%

O=C(O)C(O)c1ccc(O)cc1 (stereo not shown) [Dermosoft HMA, p-Hydroxymandelic acid sodium salt]
remaining activity at 0.01 % [4]: 110% | remaining activity at 0.1 % [5]: 99% | remaining activity at 1 % [9]: 56%

O=C(/C=C/c1ccc(O)c(O)c1)O[C@H](Cc1ccc(O)c(O)c1)C(=O)O [Rosemary acid, rosemary acid]
Residual activity (test concentration 0.0008 %, 30 min, 37° C., pH 6.8): 48% | Residual activity (test concentration 0.008 %, 30 min, 37° C., pH 6.8): 15% | Residual activity [1]: 19% | Residual activity (test concentration 8 · 10^−5 %, 30 min, 37° C., pH 6.8): 86%

O=P(O)(O)O[C@H]1[C@H](OP(=O)(O)O)[C@@H](OP(=O)(O)O)[C@H](OP(=O)(O)O)[C@@H](OP(=O)(O)O)[C@H]1OP(=O)(O)O [Phytic acid, myo-inositol-hexaphosphoric acid]
remaining activity at 0.01 % [4]: 90% | remaining activity at 0.05 % (0.5 h, test concentration 0.05 %, 30 min, 37° C., pH 6.8, read-out: Residual activity): 86% | remaining activity at 0.1 % [5]: 71% | remaining activity at 0.38 % (0.5 h, test concentration 0.38 %, 30 min, 37° C., pH 6.8, read-out: Residual activity): 68% | remaining activity at 1 % [9]: 16%

O.O.O.O.O.[Cl][Cu][Cl] [CuCl2 × 5H2O, CuCl2·5 H2O]
Residual activity (test concentration 0.000005 %, 30 min, 37° C., pH 6.8): 105% | Residual activity (test concentration 0.00005 %, 30 min, 37° C., pH 6.8): 39% | Residual activity (test concentration 0.00025 %, 30 min, 37° C., pH 6.8): 7%

O=C([O-])CN(CCN(CC(=O)[O-])CC(=O)[O-])CC(=O)[O-].[Na+].[Na+].[Na+].[Na+] [Trilon B, EDTA-4 Na, reference compound]
Residual activity [6]: 108% | Residual activity [7]: 86% | Residual activity [2]: 57% | Residual activity [8]: 51% | Residual activity [11]: 43%

NCC(=O)O [Glycine, glycine]
remaining activity at 0.01 % [12]: 95% | remaining activity at 0.1 % [12]: 91% | remaining activity at 0.5 % [12]: 70% | remaining activity at 1 % [12]: 52% | remaining activity at 2 % [12]: 32%

CC(O)C(=O)[O-].[K+] (stereo not shown) [Purasal P Hipure 60, Potassium lactate]
Residual activity [6]: 96% | Residual activity [7]: 88% | Residual activity [8]: 52%

CC(=O)CCc1ccc(O[C@@H]2O[C@H](CO)[C@@H](O)[C@H](O)[C@H]2O)cc1 [Raspberry ketone glucoside, 4-(γ-ketobutyl)phenyl β-D-glucoside]
Residual activity [2]: 125% | Residual activity [8]: 49%

Copper gluconate [Givobio GCU]
Residual activity [6]: 81% | Residual activity [7]: 50%

O=C([O-])CN(CC(=O)[O-])CC(=O)[O-].[Na+].[Na+].[Na+] [Trilon A, Nitrilotriacetic acid 3 Na, reference compound]
Residual activity [6]: 100% | Residual activity [7]: 90% | Residual activity [2]: 71% | Residual activity [8]: 59% | Residual activity [11]: 52%

C=C(C)C1CCC(C)CC1O (stereo not shown) [Coolact P, 5-methyl-2-(1-methylvinyl)cyclohexan-1-ol]
remaining activity at 0.0005 % (0.5 h, concentration in the test 0.0005 % (head of grid column 3, first sub-table), 30 min, 37° C., pH 6.8, read-out: Residual activity): 184% | remaining activity at 0.01 % [10]: 38%
